# Assay results from US20080312171A1, “Tetracycline-Dependent Regulation of Rna Interference” (CENTRE NATIONAL DE LA RECHERCHE SCIENTIFIQUE, priority 2005, published 2008).
# How the values were obtained:
# Assay type in all cases: cell-based
# [1] = tested on: human p53; test: Western blot analysis of p53 silencing by Dox-regulated RNAi in HEK 293T, MCF-7 and A549 cells; details: transduced HEK 293T, Dox 6 μg/ml, 5-7 days, densitometric analysis
# Description: Cells (1×10^5) were incubated overnight with indicated quantities of vector, expressed as ng of protein p24, and then cultivated in the absence and in the presence of 6 μg/ml Dox. After a 5 day (MCF-7 and A549 cells) and a 7 day cultivation (HEK 293T cells), protein was extracted from the cells and analyzed by immunoblotting.
# Inventors constructed a second vector, which contained a shRNA encoding sequence designed to silence expression of human p53 as described (1). […] The expression of p53 was not reduced when non-transduced cells were incubated in the presence of Dox (6 μg/ml).
# Cell extracts were prepared in lysis buffer [25 mM Tris-HCl (pH 7.5), 1% Triton X-100, 0.5% sodium deoxycholate, 5 mM EDTA, 150 mM NaCl] containing a cocktail of protease inhibitors (Roche, Meylan, France). The protein samples (30 μg) were separated on SDS-9% polyacrylamide gels and then transferred to Protan nitrocellulose membranes (Schleicher and Shuell, Dassel, Germany) in an electroblotting apparatus, using standard procedures (26). Immunodetection was performed as described in Tejedor-Real et al. (27), using a monoclonal anti-p53 antibody (BD Biosciences, Erembodegem, Belgium), a monoclonal anti-actin antibody (Chemicon, Hampshire, UK) and an anti-mouse Ig-horseradish peroxidase (HRP) conjugate (Amersham Biosciences).
# [2] = tested on: GFP expression in HEK 293T GFP cells; test: FACS analysis of GFP-positive cells, vector-transduced HEK 293T GFP cells with and without Dox; details: various amounts of vector, Dox 6 μg/ml, 5 days
# [3] = tested on: GFP expression in HEK 293T GFP cell clones; test: GFP fluorescence (FACS, microscopy) in cell clones from transduced HEK 293T GFP cells, Dox-controlled RNAi
compound,measurement,setting,value
"C[C@H]1c2cccc(O)c2C(=O)C2=C(O)[C@]3(O)C(=O)C(C(N)=O)=C(O)[C@@H](N(C)C)[C@@H]3[C@@H](O)[C@@H]21 [Dox, Doxycycline]",inhibition of the expression of p53,[1],up to 90%
same,reduction of the number of GFP-expressing cells,[2],up to 60%
same,MFI (+Dox),[3]; clone C1,4
same,Regulation factor,"[3]; clone C1, MFI (−Dox) over MFI (+Dox)",52
same,MFI (+Dox),[3]; clone C9,32
same,reduction of GFP fluorescence,"[3]; clone C9, 6 μg/ml Dox, after 5-6 days, FACS",90%
same,Regulation factor,"[3]; clone C9, MFI (−Dox) over MFI (+Dox)",9.7
same,concentration required to induce a 90% suppression of GFP,"[3]; clone C9, within 5 days",about 6 μg/ml
same,MFI (+Dox),[3]; clone D8,9
same,Regulation factor,"[3]; clone D8, MFI (−Dox) over MFI (+Dox)",24
same,MFI (+Dox),[3]; clone H6,77
same,Regulation factor,"[3]; clone H6, MFI (−Dox) over MFI (+Dox)",4.4
